Seven compounds from patent US20130096067A1, “DROSOPHILA TUMOR STEM CELL MODEL AND USES THEREOF” (priority 2011, published 2013) can be followed below.

Entries after “also recorded” stand apart in the source; their conditions may differ. Like-named read-outs stand apart in the source and are kept apart here.

The subject of one experiment is ISCs/EBs. The experiment is described as follows: Drug-induced ISC/EB expansion in animals with loss-of-function JAK allele hop^msv1. The class given is in vivo, Drosophila. As to conditions: loss-of-function JAK allele hop^msv1 vs wild type. Here is the method:
FIG. 7. FDA anti-cancer drugs that block TSCs can have differential effects on the microenvironment and growth of wild-type ISCs. […] Flies were treated with DMSO alone as a control. […]. […] C) The expansion of ISCs/EBs in response to bortezomib and paclitaxel is less severe in animals with a loss-of-function JAK allele, hop^msv1.
Controls: yw,yv;attP2 (Ni et al., 2008). Gal4 drivers and reporters: esg-Gal4,UAS-GFP,tub-Gal80^ts (Micchelli et al., 2006), UAS-luc2(luciferase at attP2) (Markstein et al., 2008), puc-lacZE69 (Ring et al., 1993), #42685}, upd3-Gal4 (Agaisse et al., 2003). UAS constructs: UAS-Raf-1^gof (Brand et al., 1994), UAS-raptor-RNAi (TRIP stock JF01088), UAS-Dsor-RNAi (TRIP stock JF01697), UAS-Akt-RNAi (TRIP stock HMS00007). UAS-NotchDN (Jacobsen 1998). Mutants: hop^msv1 (Perrimon et al., 1986). Using the above stocks, an esg-Gal4 stock was created with both an inducible GFP reporter and an inducible Luciferase reporter: esg-Gal4,UAS-GFP,tub-Gal80^ts; UAS-luc2. For the chemical screens the following cross was performed to create Raf-1^gof intestinal tumors marked with GFP and luciferase: UAS-Raf-1^gof X esg-Gal4,UAS-GFP,tub-Gal80^ts; UAS-luc2. […]

A further experiment concerns JAK-STAT signaling. The experiment is described as follows: upd3-GFP reporter for JAK-STAT signaling in wild-type guts. Type of experiment: in vivo, Drosophila. As to conditions: EC cells. The method, then:
(§1) Flies were treated with DMSO alone as a control. […].
(§2) For example, subjecting the fly intestine to the detergent dextran sulfate sodium (DSS) or to pathogen infection, induces ECs to activate the JNK stress-related pathway and to express IL-6 related cytokines (Unpaireds/Upds) (Jiang et al., 2009; Buchon et al., 2009; Apidianakis et al., 2009). The Upds activate JAK-STAT signaling in the ISCs, driving them to overproliferate. To determine if these same pathways are activated in response to FDA anti-cancer drugs, the puc-lacZ reporter was used to monitor JNK signaling, and a Gal-4 enhancer trap to monitor expression of Upd-3, the Upd cytokine preferentially expressed in the gut in response to injury (Jiang et al., 2009).

For a further experiment, the system named is JNK signaling. The experiment can be described thus: puc-LacZ reporter for JNK signaling in wild-type guts. Type of experiment: in vivo, Drosophila. As to conditions: EC cells. Here is the method:
as §1, §2

Experiment [1] relates to Raf-1^gof intestinal tumors. The experiment can be described thus: Luciferase screen of FDA-approved (NCI) drugs in 96-well plates, flies with Raf-1^gof intestinal tumors. Type of experiment: in vivo, Drosophila. As to conditions: for Avg (3 + 6): average of Day 3 and Day 6 fold; for Log2 (fold): log2 of the Day 3 fold difference in luciferase relative to DMSO controls; for Day 3 Fold: luciferase activity relative to DMSO controls, single dose of drug for three days, 96-well plates; for Day 6 Fold: six-day protocol: single dose for three days, then another dose for three more days.

Experiment [2] concerns Raf-1^gof intestinal tumors. As to conditions: for Fold: luciferase relative to DMSO, fed three consecutive days in vials; for Log2 (fold) (luciferase activity, log2 of the fold difference relative to DMSO controls) / Fold (luciferase activity, fold difference relative to DMSO controls): screen of 480 ICCB compounds in vials, compounds fed to flies with one-day old Raf-1^gof tumors, esg-Gal4 luciferase.

The subject of another experiment is Raf-1^gof TSCs. The experiment is described as follows: Visualization of Raf-1^gof tumors in dissected guts by esg-GFP and Delta staining. Type of experiment: in vivo, Drosophila. Here is the method: Samples were incubated 1 hour in 5% NDS blocking solution, overnight in primary antibody, 1.5 hours in secondary antibody and 6 minutes in DAPI. They were rinsed and washed between steps in PBS containing 0.1% Triton X-100. Finally they were placed in mounting media (Vectashield) and mounted for microscopy. Images were taken with a Leica TCS SP2 confocal microscope.
(§3) Primary screening drugs were provided by the Harvard Institute for Chemistry and Cell Biology (ICCB; 480 known bioactives library), and the National Cancer Institute (NCI) Drug Therapeutics Program (library of 88 FDA-approved oncology drugs). Secondary assays were conducted with freshly prepared 10 mM stocks that were diluted 1:100 in fly food, giving a final concentration of 100 μM.
(§4) Drugs were dissolved in 100% DMSO. Drugs were mixed 1:100 with molten fly food at 37° C. and then aliquoted to either 5 mL tubes or 1 mL wells of a 96-well plate.
Control flies were treated with DMSO.
Flies were treated with DMSO alone as a control.

The subject of the next experiment is Raf-1^gof tumor cells. The experiment is described as follows: esg-Gal4 luciferase assay in whole-fly lysates of control and drug-treated flies (validation and replicate assays). Type of experiment: in vivo, Drosophila. Here is the method:
as §3, §4
Flies were anesthetized and transferred in pools of 3 to 96-well plates containing 100 μL of glo lysis buffer (Promega E2661) and homogenized with a multiple homogenizer (Burkard Scientific BS00253) for 3-5 minutes. The plates were then centrifuged for 5 minutes at 4,000 rpm, and the lysates were then transferred to new 96-well “master” plates. Firefly luciferase assays were conducted with 20 μL of lysate as specified by Promega. Luminescence was counted using the Molecular Devices Analyst GT plate reader.
To exploit the TSC model for in vivo chemical screens, a high-throughput method was developed to track tumor growth, using a luciferase reporter assay instead of the conventional method of visualizing tumors with GFP. […] The esg-Gal4 driver was employed to express luciferase in the TSCs and the effects of various compounds were compared by measuring luciferase in homogenates of control and drug-treated flies.

Where [3] appears, read: Table 3 summary of hits, Screen ICCB.
The mark [4] stands for this setting: assessed three days later, averaged from multiple wells.
The mark [5] stands for this setting: esg-GFP in dissected guts, DMSO control.

`CC(C)C[C@H](NC(=O)[C@H](Cc1ccccc1)NC(=O)c1cnccn1)B(O)O` [Bortezomib]: in the experiment on ISCs/EBs, the “expansion of ISCs/EBs in hop^msv1 animals” value is listed as “less severe”. The “expression of upd3-GFP / Upd-3 reporter (JAK-STAT signaling)” value (shortened to “expression of upd3-GFP / Upd-3 reporter”) in the experiment with JAK-STAT signaling was “inducing expression of puc-lacZ (red, upper panel) and upd3-GFP; also recorded: induced expression of both the JNK puc-lacZ reporter and the Upd-3 reporter”. Besides, the “expression of puc-lacZ reporter (JNK signaling)” value (shortened to “expression of puc-lacZ reporter”) in the experiment on JNK signaling is “inducing expression of puc-lacZ; also recorded: induced expression of both the JNK puc-lacZ reporter and the Upd-3 reporter”. In experiment [1], the “Avg (3 + 6)” value is listed as 0.607 fold, the “Log2 (fold)” value is −2.013, the “Day 3 Fold” value amounted to 0.248 fold and the “Day 6 Fold” value was 0.967 fold.
As to `CN(Cc1cnc2nc(N)nc(N)c2n1)c1ccc(C(=O)N[C@@H](CCC(=O)O)C(=O)O)cc1` [Methotrexate], the “expression of upd3-GFP / Upd-3 reporter” value with JAK-STAT signaling is “no effect on the expression of any of the reporters”. In addition, the “expression of upd3-GFP / Upd-3 reporter” value in the experiment on JAK-STAT signaling (listed as methotrexate) is recorded as “expressed neither reporter”. The compound also gave a Fold in experiment [2] (setting [3]) of 0.160 fold. Also, in experiment [2] (assessed three days later), the “Log2 (fold) (luciferase activity, log2 of the fold difference relative to DMSO controls)” value is recorded as −2.648. In addition, in experiment [2] (setting [4]), the “Fold (luciferase activity, fold difference relative to DMSO controls)” value came out at 0.160. In addition, the “expression of puc-lacZ reporter” value with JNK signaling is recorded as “no effect on the expression of any of the reporters”. Besides, the “expression of puc-lacZ reporter” value in the experiment on JNK signaling (listed as methotrexate) is on record as “expressed neither reporter”. Also, in experiment [1], the “Avg (3 + 6)” value was found to be 0.094 fold, the “Log2 (fold)” value is recorded as −3.231, the “Day 3 Fold” value turned out to be 0.107 fold and the “Day 6 Fold” value is 0.081 fold.
Turning to `C[C@H](NC(=O)Cc1cc(F)cc(F)c1)C(=O)N[C@H]1N=C(c2ccccc2)c2ccccc2N(C)C1=O` [Compound E, reference compound], in the experiment on Raf-1^gof TSCs (setting [5]), the “effect on Raf-1^gof tumor cells / tumor growth” value is given as “augmented tumor growth; also recorded: increased tumor growth; also recorded: dramatic expansion of the tumor”. In experiment [2] (ICCB compounds fed in vials to flies with one-day old Raf-1^gof tumors, assessed three days later), the “Log2 (fold) of luciferase activity relative to DMSO controls” value is 1.431. Also, the “Fold (luciferase activity relative to DMSO controls)” value in experiment [2] (ICCB compounds fed in vials to flies with one-day old Raf-1^gof tumors, assessed three days later, averaged from multiple wells) is recorded as 2.696 fold. Besides, in experiment [2] (setting [3]), the “Log2 (fold)” value was found to be 1.431 and the Fold is listed as 2.696 fold. In addition, the “effect on luciferase activity” value in the experiment with Raf-1^gof tumor cells (whole-animal extracts vs DMSO controls) was “augmented tumor growth and luciferase activity”.
As to Bleomycin, the “effect on Delta positive TSCs” value in the experiment with Raf-1^gof TSCs (Delta staining of dissected guts) was “failed to block TSCs”. The “expression of upd3-GFP / Upd-3 reporter” value in the experiment with JAK-STAT signaling is “induced JNK and JAK-STAT signaling”. For the same compound, in the experiment on JNK signaling, the “expression of puc-lacZ reporter” value was “induced JNK and JAK-STAT signaling”. In addition, in experiment [1], the “Avg (3 + 6)” value is 0.521 fold, the “Log2 (fold)” value was 0.060, the “Day 3 Fold” value turned out to be 1.043 fold and the “Day 6 Fold” value came out at 0.000 fold.
In the case of `COc1cc2c(c(OC)c1OC)-c1ccc(OC)c(=O)cc1[C@@H](NC(C)=O)CC2` [colchicine], the “effect on Raf-1^gof tumor cells / tumor growth” value in the experiment on Raf-1^gof TSCs (in vivo) is recorded as “eliminated virtually all of the tumor cells; also recorded: eliminates virtually all of the Raf-1^gof tumor cells; also recorded: virtually all of the tumor cells were lost”. For the same compound, in the experiment on Raf-1^gof tumor cells (in vivo), the “effect on luciferase activity” value is reported as “steep drop in luciferase activity” and the “loss of luciferase activity” value is recorded as “about 80%”.
Regarding `CC(=O)O[C@H]1C(=O)[C@@]2(C)[C@H]([C@H](OC(=O)c3ccccc3)[C@]3(O)C[C@H](OC(=O)[C@H](O)[C@@H](NC(=O)c4ccccc4)c4ccccc4)C(C)=C1C3(C)C)[C@]1(OC(C)=O)CO[C@@H]1C[C@@H]2O` [Paclitaxel], the “expansion of ISCs/EBs in hop^msv1 animals” value in the experiment on ISCs/EBs is recorded as “less severe”. The “expression of upd3-GFP / Upd-3 reporter” value in the experiment on JAK-STAT signaling is “inducing expression of puc-lacZ (red, upper panel) and upd3-GFP; also recorded: induced expression of both the JNK puc-lacZ reporter and the Upd-3 reporter”. For the same compound, the Fold in experiment [2] (setting [3]) is on record as 0.274 fold. Moreover, in experiment [2] (assessed three days later), the “Log2 (fold) (luciferase activity, log2 of the fold difference relative to DMSO controls)” value is −1.870. Moreover, the “Fold (luciferase activity, fold difference relative to DMSO controls)” value in experiment [2] (setting [4]) is reported as 0.274. Further, the “expression of puc-lacZ reporter” value in the experiment on JNK signaling was “inducing expression of puc-lacZ; also recorded: induced expression of both the JNK puc-lacZ reporter and the Upd-3 reporter”. Also, in experiment [1], the “Avg (3 + 6)” value was found to be 0.695 fold, the “Log2 (fold)” value was −1.808, the “Day 3 Fold” value is reported as 0.285 fold and the “Day 6 Fold” value stood at 1.104 fold.
In the case of `Nc1ncnc2c1c(I)cn2[C@@H]1O[C@H](CO)[C@@H](O)[C@H]1O` [5-iodotubercidin, reference compound], the “effect on Raf-1^gof tumor cells / tumor growth” value with Raf-1^gof TSCs (setting [5]) is listed as “reduced tumor growth”. The Fold in experiment [2] (setting [3]) was determined as 0.530 fold. The “Log2 (fold) (luciferase activity, log2 of the fold difference relative to DMSO controls)” value in experiment [2] (assessed three days later) is on record as −0.917. In experiment [2] (setting [4]), the “Fold (luciferase activity, fold difference relative to DMSO controls)” value is on record as 0.530.
